This is an account of results in patent US20220202911A1 (Amryt Endo, Inc., priority 2020, published 2022).

SMILES strings stand for the structures.

For data set [1] the following is noted: digoxin 0.5 mg alone (placebo).
Excerpt: (§1) This was a single-center, randomized, single-blind, placebo-controlled study in 18 healthy subjects. Two groups of subjects were studied in a 4-treatment, 2-sequence, and crossover design. The study was comprised of a screening period, a treatment period, and a follow-up period (approximately 10-13 days following the last test condition). Subjects were randomized in a 1:1 ratio to one of 2 sequences (i.e., Group 1 or 2) of 4 test conditions (i.e., A-D) as shown in Table 1.
Data set [2] is described as follows: clinical. The note with it: human, plasma; for AUC(0-t): AUC(0-12).
Excerpt: as §1
The nature of data set [3]: clinical. The settings on record: human, in vivo; for AUC(0-t): AUC(0-12).
Setting [4] is: oral, least squares geometric mean, digoxin alone (second geometric-mean column; no unit printed in Table 7).
Where [5] appears, read: least squares geometric mean, Reference.
The mark [6] stands for this setting: least squares geometric mean, Test.

Broadly, the Tmax is the time at which the peak concentration occurs. As a reminder, the AUC(0-t) is exposure summed from dosing to a finite time, without extrapolation to infinity. As usually defined, the Cmax is the highest concentration seen after dosing. As for `C[C@H]1O[C@@H](O[C@H]2[C@@H](O)C[C@H](O[C@H]3[C@@H](O)C[C@H](O[C@H]4CC[C@@]5(C)[C@H](CC[C@@H]6[C@@H]5C[C@@H](O)[C@]5(C)[C@@H](C7=CC(=O)OC7)CC[C@]65O)C4)O[C@@H]3C)O[C@@H]2C)C[C@H](O)[C@@H]1O` [Digoxin, digoxin], in data set [1], the “Tmax, median” value was determined as 1 h. In addition, the Tmax in data set [2] (oral) is 3 h. Further, the AUC(0-t) in data set [2] (oral, 0.5 mg, mean ± SD, digoxin 0.5 mg alone (placebo)) is 9.14 ± 2.03 ng·h/mL; in data set [2] (setting [4]), 8.91 ng·h/mL. Besides, the Cmax was found to be 2.38 ng/mL in data set [2] (setting [4]) and 2.5 ± 0.71 ng/mL in data set [2] (po, mean ± SD, digoxin 0.5 mg oral single dose alone (placebo; lisinopril 20 mg co-administered)).

For `NCCCC[C@H](N[C@@H](CCc1ccccc1)C(=O)O)C(=O)N1CCC[C@H]1C(=O)O` [Lisinopril, lisinopril], in data set [3], the AUC0-12 increase was found to be 40%, the Cmax increase turned out to be 50%, the Tmax worked out at 7 h and the “change in the rate of absorption (from Tmax)” value is reported as “no apparent change”. Also, in data set [3], the “individual decreases in AUC0-12, 3 of 17 subjects” value was 6.17-16.1%; the “individual increases in AUC0-12, remaining 14 subjects” value is on record as 2.98-140%; the “share of the 14 subjects with an increase in AUC0-12 that had an increase 25% (11 subjects)” value came to 79%. Moreover, the Tmax in data set [3] (20 mg) was found to be 7.5 h. In data set [3] (20 mg, mean ± SD), this compound had an AUC(0-t) of 690 ± 207 ng·h/mL. Also, in data set [3] (setting [5]), the AUC(0-t) stood at 661 ng·h/mL and the Cmax worked out at 83.6 ng/mL. Besides, in data set [3] (setting [6]), the AUC(0-t) was determined as 923 ng·h/mL and the highest level (Cmax) was 126 ng/mL.
